From US9617256B2 (priority 2007, dated 2017)
Values after ≈ are worked out from the molar mass of the structure shown. Where two headings read alike, the source gives them in different places.

Legend:
AECO001 (ATCC25922) = experiment: MIC broth microdilution, AECO001; format: cell-based, E. coli; details: Escherichia coli
Method in brief: (§1)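 MICs come from broth microdilution in cation-adjusted Mueller-Hinton broth, final inoculum 3×10^5–7×10^5 CFU/mL, 18-24 hours at 35° C. Levofloxacin and QC strains served as assay controls.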

[1] = system: AECO063 (ATCC25922 bearing an acrAB mutation); experiment: microbe, parasite or virus in culture; format: cell-based, E. coli; details: Escherichia coli, ATCC25922, read-out: MIC AECO063
Method in brief: as §1

APAE001 (ATCC27853) = experiment: MIC broth microdilution, APAE001; format: cell-based, P. aeruginosa; details: Pseudomonas aeruginosa, ATCC27853, read-out: MIC APAE001, APAE001 (ATCC27853)
Method in brief: as §1

[2] = system: APAE006 (strain of P. aeruginosa in which all efflux pumps are inactivated); experiment: microbe, parasite or virus in culture; format: cell-based; details: Pseudomonas aeruginosa, read-out: MIC APAE006, APAE006, all efflux pumps inactivated
Method in brief: (§2)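 Strains were grown overnight at 35° C. on Mueller-Hinton agar, suspended to 0.5 McFarland and diluted to a final 3×10^5–7×10^5 CFU/mL. They were then exposed to 2-fold serial drug dilutions in cation-adjusted Mueller-Hinton broth and incubated 18-24 hours at 35° C.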

[3] = system: APAE006 in the presence of 8 micrograms per milliliter of polymyxin B nonapeptide; format: cell-based, P. aeruginosa; details: APAE006 with 8 micrograms per milliliter polymyxin B nonapeptide
Method in brief: as §2

[4] = system: AABA1060 (clinical isolate of Acinetobacter baumannii); experiment: MIC broth microdilution, AABA1060; format: cell-based; details: Acinetobacter baumannii, read-out: MIC AABA1060
Method in brief: as §1

[5] = system: ASAU001 (laboratory strain of S. aureus, ATCC29213); experiment: MIC broth microdilution, ASAU001; format: cell-based; details: Staphylococcus aureus, ATCC29213, read-out: MIC ASAU001
Method in brief: as §1

[6] = ATCC25922, read-out: MIC AECO001
[7] = ATCC25922, read-out: MIC AECO001 HSA AGP

With C[C@@H](N)[C@H](NC(=O)c1ccc(C#Cc2ccc(COC3CC3)cc2)cc1)C(=O)NO [Example 123-1, N-((1S,2R)-2-Amino-1-hydroxycarbamoyl-propyl)-4-(4-cyclopropoxymethyl-phenylethynyl)-benzamide] the MIC (AECO001 (ATCC25922); [6]) was under 2 µg/mL, the MIC (AECO001 (ATCC25922); [7]) was 2 to 16 µg/mL (≈ 4.91 to 39.3 µM) and the MIC [1] was under 2 µg/mL. The MIC (APAE001 (ATCC27853)) was 2 to 16 µg/mL (≈ 4.91 to 39.3 µM), the MIC [2] was under 2 µg/mL and the “MIC APAE006 + PMBN” value [3] was “A (MIC's of 2.0 μg/mL or less = A)”. It also gave an MIC [4] of 2 to 16 µg/mL (≈ 4.91 to 39.3 µM) and an MIC [5] of 16 to 64 µg/mL (≈ 39.3 to 157 µM).
For C[C@@H](N)[C@H](NC(=O)c1ccc(C#Cc2ccc(COCC(F)(F)F)cc2)cc1)C(=O)NO [Example 124-1, N-((1S,2R)-2-Amino-1-hydroxycarbamoyl-propyl)-4-[4-(2,2,2-trifluoro-ethoxymethyl)-phenylethynyl]-benzamide], the MIC (AECO001 (ATCC25922); [6]) was under 2 µg/mL, the MIC (AECO001 (ATCC25922); [7]) was 2 to 16 µg/mL (≈ 4.45 to 35.6 µM) and the MIC [1] was under 2 µg/mL. For the same molecule, the MIC (APAE001 (ATCC27853)) was 2 to 16 µg/mL (≈ 4.45 to 35.6 µM), the MIC [2] was under 2 µg/mL and the “MIC APAE006 + PMBN” value [3] was “A (MIC's of 2.0 μg/mL or less = A)”. The MIC [4] was 16 to 64 µg/mL (≈ 35.6 to 142 µM) and the MIC [5] was 16 to 64 µg/mL (≈ 35.6 to 142 µM).
CC(C)OCc1ccc(C#Cc2ccc(C(=O)N[C@H](C(=O)NO)[C@@H](C)N)cc2)cc1 [Example 124-2] was tested, and the MIC (AECO001 (ATCC25922); [6]) was under 2 µg/mL, the MIC (AECO001 (ATCC25922); [7]) was 2 to 16 µg/mL (≈ 4.88 to 39.1 µM) and the MIC [1] was under 2 µg/mL. The MIC (APAE001 (ATCC27853)) was 2 to 16 µg/mL (≈ 4.88 to 39.1 µM), the MIC [2] was under 2 µg/mL and the “MIC APAE006 + PMBN” value [3] was “A (MIC's of 2.0 μg/mL or less = A)”. The MIC [4] was 2 to 16 µg/mL (≈ 4.88 to 39.1 µM) and the MIC [5] was 16 to 64 µg/mL (≈ 39.1 to 156 µM).
For C[C@@H](N)[C@H](NC(=O)c1ccc(C#Cc2ccc(OC3CC3)cc2)cc1)C(=O)NO [Example 125-1, N-((1S,2R)-2-Amino-1-hydroxycarbamoyl-propyl)-4-(4-cyclopropoxy-phenylethynyl)-benzamide], the MIC (AECO001 (ATCC25922); [6]) was under 2 µg/mL, the MIC (AECO001 (ATCC25922); [7]) was 2 to 16 µg/mL (≈ 5.08 to 40.7 µM) and the MIC [1] was under 2 µg/mL. For the same molecule, the MIC (APAE001 (ATCC27853)) was 2 to 16 µg/mL (≈ 5.08 to 40.7 µM), the MIC [2] was under 2 µg/mL and the “MIC APAE006 + PMBN” value [3] was “A (MIC's of 2.0 μg/mL or less = A)”. For the same molecule, the MIC [4] was under 2 µg/mL and the MIC [5] was 16 to 64 µg/mL (≈ 40.7 to 163 µM).
CCOCc1ccc(C#Cc2ccc(C(=O)N[C@H](C(=O)NO)C(C)(C)N)cc2)cc1 [Example 126-1, N—((S)-2-Amino-1-hydroxycarbamoyl-2-methyl-propyl)-4-(4-ethoxymethyl-phenylethynyl)-benzamide] was tested, and the MIC (AECO001 (ATCC25922); [6]) was under 2 µg/mL, the MIC (AECO001 (ATCC25922); [7]) was under 2 µg/mL and the MIC [1] was under 2 µg/mL. For the same molecule, the MIC (APAE001 (ATCC27853)) was under 2 µg/mL, the MIC [2] was under 2 µg/mL and the “MIC APAE006 + PMBN” value [3] was “A (MIC's of 2.0 μg/mL or less = A)”. It also gave an MIC [4] of under 2 µg/mL and an MIC [5] of 16 to 64 µg/mL (≈ 39.1 to 156 µM).
Molecule C[C@@H](N)[C@H](NC(=O)c1ccc(C#Cc2ccc(NC(=O)CNC3CC3)cc2)cc1)C(=O)NO [Example 130-1, N-((1S,2R)-2-Amino-1-hydroxycarbamoyl-propyl)-4-[4-(2-cyclopropylamino-acetylamino)-phenylethynyl]-benzamide] has an MIC (AECO001 (ATCC25922); [6]) of 2 to 16 µg/mL (≈ 4.45 to 35.6 µM), an MIC (AECO001 (ATCC25922); [7]) of 16 to 64 µg/mL (≈ 35.6 to 142 µM) and an MIC [1] of under 2 µg/mL. For the same molecule, the MIC (APAE001 (ATCC27853)) was under 2 µg/mL, the MIC [2] was under 2 µg/mL and the “MIC APAE006 + PMBN” value [3] was “A (MIC's of 2.0 μg/mL or less = A)”. The MIC [4] was 2 to 16 µg/mL (≈ 4.45 to 35.6 µM) and the MIC [5] was 16 to 64 µg/mL (≈ 35.6 to 142 µM).
O=C(CNC1CC1)NC[C@H](NC(=O)c1ccc(C#Cc2ccccc2)cc1)C(=O)NO [Example 132-1, N—[(S)-2-(2-Cyclopropylamino-acetylamino)-1-hydroxycarbamoyl-ethyl]-4-phenylethynyl-benzamide] gave an MIC (AECO001 (ATCC25922); [6]) of under 2 µg/mL, an MIC (AECO001 (ATCC25922); [7]) of 2 to 16 µg/mL (≈ 4.76 to 38.1 µM) and an MIC [1] of under 2 µg/mL. For the same molecule, the MIC (APAE001 (ATCC27853)) was 2 to 16 µg/mL (≈ 4.76 to 38.1 µM), the MIC [2] was under 2 µg/mL and the “MIC APAE006 + PMBN” value [3] was “A (MIC's of 2.0 μg/mL or less = A)”. The MIC [4] was 2 to 16 µg/mL (≈ 4.76 to 38.1 µM) and the MIC [5] was 16 to 64 µg/mL (≈ 38.1 to 152 µM).
Work on C[C@@H](NC(=O)CNC1CC1)[C@H](NC(=O)c1ccc(C#Cc2ccccc2)cc1)C(=O)NO [Example 132-2] yielded an MIC (AECO001 (ATCC25922); [6]) of under 2 µg/mL, an MIC (AECO001 (ATCC25922); [7]) of 2 to 16 µg/mL (≈ 4.6 to 36.8 µM) and an MIC [1] of under 2 µg/mL. The MIC (APAE001 (ATCC27853)) was 2 to 16 µg/mL (≈ 4.6 to 36.8 µM), the MIC [2] was under 2 µg/mL and the “MIC APAE006 + PMBN” value [3] was “A (MIC's of 2.0 μg/mL or less = A)”. The MIC [4] was 16 to 64 µg/mL (≈ 36.8 to 147 µM) and the MIC [5] was 16 to 64 µg/mL (≈ 36.8 to 147 µM).
In the case of C[C@@H](NCC(=O)NC[C@H](NC(=O)c1ccc(C#Cc2ccccc2)cc1)C(=O)NO)c1ccccc1 [Example 132-3], the MIC (AECO001 (ATCC25922); [6]) is reported as under 2 µg/mL, the MIC (AECO001 (ATCC25922); [7]) is reported as 2 to 16 µg/mL (≈ 4.13 to 33 µM) and the MIC [1] is reported as under 2 µg/mL. For the same molecule, the MIC (APAE001 (ATCC27853)) was 16 to 64 µg/mL (≈ 33 to 132 µM), the MIC [2] was under 2 µg/mL and the “MIC APAE006 + PMBN” value [3] was “A (MIC's of 2.0 μg/mL or less = A)”. For the same molecule, the MIC [4] was 2 to 16 µg/mL (≈ 4.13 to 33 µM) and the MIC [5] was 16 to 64 µg/mL (≈ 33 to 132 µM).
